# From patent US20040137023A1, “5-Cholesten-3beta, 25-diol-7-one, esters and ethers thereof, particularly for the treatment of dry skin and scalp” (L'OREAL, priority 2002, published 2004)
# Tested on: immortalized human sebocytes derived from the SZ95 line
# Experiment: Lipogenesis in immortalized human sebocytes in culture (Nile red fluorescence, neutral lipids)
# Format: cell-based
# Conditions: for LIPID VARIATION (relative to the control): treatment for 2 days, 0.1% DMSO, Nile red 485-540 nm
# Description: 5-Cholesten-3β,25-diol-7-one was tested, in comparison with 7-oxocholesterol and 25-hydroxy-cholesterol, on a model of immortalized human sebocytes in culture, derived from the SZ95 line described in Zouboulis, C. C., Seltmann, H., Neitzel, H. and Orfanos, C. E., Establishment and Characterization of an Immortalized Human Sebaceous Gland Cell Line, J. Invest. Dermatol., 113, 1011-1020 (1999).
# The test consisted in measuring the amount of lipids produced by the sebocytes of the line (at confluence), in the presence or absence of active agents diluted in DMSO, such that the final amount of DMSO in the culture medium is 0.1%. After treatment for 2 days, the adherent cells are treated with Nile red (1 μg/ml). The lipid content is then quantified by measuring the fluorescence of the dye (excitation/emission pair: 485-540 nm for the neutral lipids).
# The tests are performed in sixplicate and the experiment is repeated four times.
# In parallel, proliferation tests (MUH) and cell viability tests (LDH) make it possible to check that the effects obtained are not associated with an appreciable change in these biological parameters.
SMILES,LIPID VARIATION (relative to the control) (test compound 10^−4 M),LIPID VARIATION (relative to the control) (test compound 10^−5 M),"increase in the lipid content of the sebum (10^−5 M, same test) [%]"
"C[C@H](CCCC(C)(C)O)[C@H]1CC[C@H]2[C@@H]3CC=C4C[C@@H](O)CC[C@]4(C)[C@H]3CC[C@]12C [25-OH cholesterol, 25-hydroxy-cholesterol]",0%,,
"C[C@H](CCCC(C)(C)O)C1CCC2C3C(=O)C=C4C[C@@H](O)CC[C@]4(C)C3CC[C@@]21C (stereo partly drawn) [5-Cholesten-3β,25-diol-7-one]",+90%,+85%,
"CC(C)CCC[C@@H](C)[C@H]1CC[C@H]2[C@@H]3C(=O)C=C4C[C@@H](O)CC[C@]4(C)[C@H]3CC[C@]12C [7-Oxocholesterol, 7-oxocholesterol]",+20%,,
C[C@]12CC[C@H](O)CC1=CC[C@@H]1[C@@H]2CC[C@]2(C)C(=O)CC[C@@H]12 [DHEA],,,13
